A short description of assay [1]: Antioxidant effect by the TEAC III method. In kind it is biochemical. The settings on record: in comparison with Trolox and ascorbic acid. How it is done:
The relative antioxidant effect of […] extract was determined by the TEAC III method in comparison with Trolox and ascorbic acid: The TEAC III method and other methods are described in Böhm V. (2000) Ernährungsumschau 47, pages 372-375.

The test system of assay [2] is phytohaemagglutinin-stimulated mononuclear cells from peripheral blood. Briefly: Inhibition of proliferation of stimulated mononuclear cells by individual flavonoids (3H-thymidine incorporation). In kind it is cell-based, human. The settings on record: luteolin, luteolin-7-glucoside, apigenin at 64-2 μg/ml; 1 μg/ml phytohaemagglutinin; 24 h + 18 h 3H-thymidine; FIG. 3b. How it is done: For this purpose, mononuclear cells from the peripheral blood of a health donor were isolated via Ficoll density gradients and incubated in RPMI medium with 5% foetal calf serum in microtitre plates. The cells were incubated in triplicates with the flavonoids luteolin, luteolin-7-glucoside and apigenin. The pure substances were dissolved in 70% ethanol and further diluted in medium. The final concentrations were 64, 32, 16, 8, 4, 2 and 0 μg/ml. After addition of the flavonoids, the cells were stimulated with 1 μg/ml of phytohaemagglutinin and incubated for 24 h in an incubator at 37° C. After addition of 1 μCurie of radioactive ^3H-thymidine, the cells were incubated for a further 18 h, and the incorporated radioactivity was then measured in a scintillation counter (Canberra-Packard).
For orientation: Dividing cells build labelled thymidine or BrdU into new DNA.

Assay [3] has as its system activated mononuclear cells (lymphocytes). Briefly: Induction of apoptosis in activated mononuclear cells (cell death detection ELISA). The note with it: individual flavonoids contained in the extracts; FIG. 5b. In kind it is cell-based. The method, then:
After addition of the additives, the cells were stimulated with 1 μg/ml of phytohaemagglutinin and incubated for 48 h in an incubator. The apoptosis induction was then determined by measuring the oligonucleosomes (low molecular weight DNA fragments) formed in the cells (cell death detection ELISA). […] The apoptosis induction could be blocked by a caspase inhibitor, i.e. is caspase-induced (FIG. 5a).
For orientation: In an ELISA, binding on a coated surface is turned into a signal by an enzyme label.

Molecules are shown by their SMILES.

Consider `O=C1O[C@H]([C@@H](O)CO)C(O)=C1O` [Ascorbic acid], for which, in assay [1], the relative antioxidant effect came to 1.1. Turning to `Cc1c(C)c2c(c(C)c1O)CCC(C)(C(=O)O)O2` (stereo not shown) [Trolox], the relative antioxidant effect in assay [1] is 1.0. `O=c1cc(-c2ccc(O)c(O)c2)oc2cc(O)cc(O)c12` [luteolin]: in assay [2], the “proliferation-inhibiting effect among individual flavonoids” value is given as “strongest proliferation-inhibiting effect”. The “apoptosis-inducing activity among individual flavonoids” value in assay [3] is given as “strongest apoptosis-inducing activity”.
